Results on 18 compounds are retold here after patent US5073565A, “Tetrazole ureas and thioureas and their use as ACAT inhibitors” (Warner-Lambert Company, priority 1990, dated 1991).

Test system in the first assay: not listed separately
Put plainly: in vivo screen designated APCC (total cholesterol in rats on PCC diet). The note with it: rat, 50 (mg/dl), N/C means no change. Details: species or system male Sprague-Dawley rats. An excerpt:
In one in vivo screen designated APCC, male Sprague-Dawley rats (200 to 225 g) were randomly divided into treatment groups and dosed at 4 PM with either vehicle (CMC/Tween) or suspensions of compounds in vehicle. The normal chow diet was then replaced with the PCC diet (5.5% peanut oil, 1.5% cholesterol, and 0.5% cholic acid). The rats consumed this diet a libitum during the night and were sacrificed at 8 AM to obtain blood samples for cholesterol analysis using standard procedures. Statistical differences between mean cholesterol values for the same vehicle were determined using analysis of variance followed by Fisher's least significant test. The results of this trail for representative compounds of the present invention appear in Table II wherein percent change means the difference in total cholesterol between control, and the drug-treated animals, and the (mg/dL) is the milligrams of compound per deciliter of vehicle administered. The milligrams are reflected parenthetically.
As for `CC(C)c1cccc(C(C)C)c1NC(=O)Nc1nnn(Cc2ccccc2)n1` [Example 17, N-[2,6-Bis(1-methylethyl)phenyl]-N'-(2-phenylmethyl-2H-tetrazol-5-yl)urea], the “% Change (difference in total cholesterol between control and drug-treated animals)” value is on record as “N/C”.

A further assay has as its target T1, acyl-CoA: cholesterol acyltransferase (ACAT) (Oryctolagus cuniculus, UniProt G1SFD9).
T1 construct: tissue preparation containing rabbit intestinal microsomes; from tissue; host or cells: rabbit intestinal microsomes
T1 sequence (G1SFD9 1-524): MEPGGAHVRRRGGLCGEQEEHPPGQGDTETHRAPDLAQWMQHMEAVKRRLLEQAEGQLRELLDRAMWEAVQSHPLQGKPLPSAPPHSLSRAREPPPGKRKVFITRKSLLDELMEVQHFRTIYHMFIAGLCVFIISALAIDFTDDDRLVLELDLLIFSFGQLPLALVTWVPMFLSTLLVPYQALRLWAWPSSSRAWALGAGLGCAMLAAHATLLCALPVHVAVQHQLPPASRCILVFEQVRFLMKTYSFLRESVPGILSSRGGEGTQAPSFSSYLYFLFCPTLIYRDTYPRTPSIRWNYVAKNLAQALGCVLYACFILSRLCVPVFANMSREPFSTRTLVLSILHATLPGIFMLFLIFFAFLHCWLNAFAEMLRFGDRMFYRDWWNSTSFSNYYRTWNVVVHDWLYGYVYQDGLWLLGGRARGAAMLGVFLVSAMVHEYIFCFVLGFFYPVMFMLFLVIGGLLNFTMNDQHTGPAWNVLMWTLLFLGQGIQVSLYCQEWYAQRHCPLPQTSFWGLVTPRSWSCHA
Put plainly: in vitro ACAT inhibition (radiolabeled cholesterol oleate formed from radiolabeled oleic acid, rabbit intestinal microsomes). The note with it: read-out: IC50 (concentration of test compound required to inhibit the activity of the enzyme by 50%). It is filed as biochemical. As to the method:
The ability of representative compounds of the present invention to inhibit ACAT was measured using an in vitro test more fully described in Field, F. J. and Salone, R. G., Biochemica et Biophysica, 712:557-570 (1982). The test assesses the ability of a test compound to inhibit the acylation of cholesterol by oleic acid by measuring the amount of radiolabeled cholesterol oleate formed from radiolabeled oleic acid in a tissue preparation containing rabbit intestinal microsomes.
The data appear in Table I where they are expressed in IC50 values; i.e., the concentration of test compound required to inhibit the activity of the enzyme by 50%.
With `CC(C)c1cccc(C(C)C)c1NC(=O)Nc1nnn(CCCCCCCCCCCCOC2CCCCO2)n1` (stereo not shown) [1 (c)], the IC50 amounted to 36 nM.

With `CC(C)c1cccc(C(C)C)c1NC(=O)Nc1nnn(CCCCCCCCCCCCO)n1` [1 (d), N-[2,6-Bis(1-methylethyl)phenyl]-N'-[2-(12-hydroxy-dodecyl)-2H-tetrazol-5-yl] urea], the IC50 stood at 21 nM.

For `CCCCCCCCCCCCCCn1nnc(NC(=O)Nc2c(C(C)C)cccc2C(C)C)n1` [Example 3, N-[2,6-bis(1-methylethyl)phenyl]-N'-(2-tetradecyl-2H-tetrazol-5-yl)urea], the IC50 worked out at 12 nM.

For `CCCCCCCCCCCCCn1nnc(NC(=O)Nc2c(C(C)C)cccc2C(C)C)n1` [Example 4, N-[2,6-Bis(1-methylethyl)phenyl]-N'-(2-tridecyl-2H-tetrazol-5-yl)urea], the IC50 was 9 nM.

In the case of `CCCCCCCCCCCCn1nnc(NC(=O)Nc2c(C(C)C)cccc2C(C)C)n1` [Example 5, N-[2,6-Bis(1-methylethyl)-phenyl]-N'-(2-dodecyl-2H-tetrazol-5-yl)urea], the IC50 was determined as 14 nM.

Regarding `CCCCCCCCCCCCCCCCn1nnc(NC(=O)Nc2c(C(C)C)cccc2C(C)C)n1` [Example 6, N-[2,6-Bis(1-methylethyl)-phenyl]-N'-(2-hexadecyl-2H-tetrazol-5-yl)urea], the IC50 amounted to 57 nM.

For `CC(C)c1cccc(C(C)C)c1NC(=O)Nc1nnn(CCCCCCCCCCOC2CCCCO2)n1` (stereo not shown) [Example 7], the IC50 came to 12 nM.

As for `CCCCCCCCCCCn1nnc(NC(=O)Nc2c(C(C)C)cccc2C(C)C)n1` [Example 10, N-[2,6-Bis(1-methylethyl)-phenyl]-N'-(2-undecyl-2H-tetrazol-5-yl)urea], the IC50 came to 9 nM.

Regarding `CCCCn1nnc(NC(=O)Nc2c(C(C)C)cccc2C(C)C)n1` [Example 11, N-[2,6-Bis(1-methylethyl)-phenyl]-N'-(2-butyl-2H-tetrazol-5-yl)urea], the IC50 is 92 nM.

Take `CC(C)c1cccc(C(C)C)c1NC(=O)Nc1nnn(CCCCCCCCCCO)n1` [Example 15, N-[2,6-Bis(1-methylethyl)phenyl]-N'-[2-(10-hydroxy-decyl)-2H-tetrazol-5-yl]urea]: the IC50 turned out to be 72 nM.

As to `CC(C)c1cccc(C(C)C)c1NC(=O)Nc1nnn(Cc2ccccc2)n1` [Example 17, N-[2,6-Bis(1-methylethyl)phenyl]-N'-(2-phenylmethyl-2H-tetrazol-5-yl)urea], the IC50 is 370 nM.

For the compound `CC(C)c1cccc(C(C)C)c1NC(=O)Nc1nnnn1Cc1ccccc1` [Example 19, N-[2,6-Bis(1-methylethyl)phenyl]-N'-(1-phenylmethyl-1H-tetrazol-5-yl)urea], the IC50 is 300 nM.

For the compound `CCCCCCCCCCn1nnnc1NC(=O)Nc1c(C(C)C)cccc1C(C)C` [Example 20], the IC50 came out at 180 nM.

For the compound `CC(C)c1cccc(C(C)C)c1NC(=O)Nc1nnnn1CCc1ccccc1` [Example 21], the IC50 stood at 327 nM.

With `CCCCCCCCn1nnc(NC(=O)Nc2c(C(C)C)cccc2C(C)C)n1` [Example 22, N-[2,6-Bis(1-methylethyl)phenyl]-N'-(2-octyl-2H-tetrazol-5-yl)urea], the IC50 was 59 nM.

With `CCCCCCn1nnc(NC(=O)Nc2c(C(C)C)cccc2C(C)C)n1` [Example 23, N-[2,6-Bis(1-methylethyl)phenyl]-N'-(2-hexyl-2H-tetrazol-5-yl)urea], the IC50 worked out at 73 nM.

For the compound `CCCCCCCCCCn1nnc(NC(=O)Nc2c(C(C)C)cccc2C(C)C)n1` [Example 24, N-[2,6-Bis(1-methylethyl)phenyl]-N'-(2-decyl-2H-tetrazol-5-yl)urea], the IC50 came to 14 nM.

Test system in the next assay: not given
Experiment: not given
The note with it: J. Medicinal Chemistry 22, 28-32 (1979); cited from earlier work.
Turning to `CCOC(=O)c1ccc(NC(=O)Nc2nnn[nH]2)cc1` [N-(4-ethoxycarbonylphenyl)-N'-tetrazol-5-yl-urea], the antileukemic data result was “inactive”.
